Literature values as cited in patent US10143639B2, “Use of adelmidrol and other topical or oral cannabinomimetic or aliamide mast cell inhibitors to treat dermatoheliosis, seborrheic keratoses, and androgenetic alopecia” (priority 2017, dated 2018).

Columns and labels:
[1] = test system: NGF
[2] = test system: hair growth in mice; conditions: applied to the skin of mice
[3] = test system: AGA patients; conditions: share of treated AGA patients improving
[4] = test system: AGA scalp; conditions: topical application, especially in subjects already taking finasteride

For `CCCCCCCCCCCCCCCC(=O)NCCO` [PEA, palmitoylethanolamide], the “pro-inflammatory effects of NGF” value [1] is given as “turned off the pro-inflammatory effects of NGF”.
In the case of `CCCCC[C@H](O)/C=C/[C@H]1C(=O)C[C@H](O)[C@@H]1C/C=C\CCCC(=O)O` [PGD2, Prostaglandin D2], the hair growth [2] is given as “stopped hair growth”.
In the case of `CC(C)(C)NC(=O)[C@H]1CC[C@H]2[C@@H]3CC[C@H]4NC(=O)C=C[C@]4(C)[C@H]3CC[C@]12C` [finasteride], the “clinical improvement in treated AGA patients” value [3] is listed as 50-60%.
In the case of `CCCCC/C=C\C/C=C\CCCCCCCC(=O)O` [linoleic acid], the hair growth [4] is given as “improved hair growth”.
